These results are taken from ChEMBL document CHEMBL1201862, “PubChem BioAssay data set” (2004).

The source made the active and inactive calls. Some results are limits rather than exact numbers.

The target in series [1] is Cytochrome P450 2C19 (Homo sapiens, UniProt P33261). Nature of the series: Cytochrome panel assay with activity outcomes. Panel member name: p450-cyp2c19 Compounds with AC50 equal or less than 10 uM are considered active. In kind it is functional.
A short description of series [2]: NIH3T3 cell viability loss – ATP luminescence, mouse fibroblasts, counter-screen, dose response (AID 2010).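 Note: cells exposed to compound for about 90 hours before reading.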 Format: functional, cell-based. Background: Counterscreens check selectivity or assay interference.
Series [3] in a line: Trypanosoma cruzi growth suppression in host cells – NIH3T3 host cells, beta-gal luminescence, confirmation (AID 2044).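 Note: intracellular parasites grown in NIH/3T3 mouse fibroblasts as host cells; luminescent beta-galactosidase reporter signal from transgenic T. cruzi replicating inside host cells; inhibitors lower the luminescence signal.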 Format: functional, cell-based.
For series [4], the target named is T1, Streptokinase A (Streptococcus pyogenes serotype M1, UniProt P10520).
T1 sequence (P10520 whole entry): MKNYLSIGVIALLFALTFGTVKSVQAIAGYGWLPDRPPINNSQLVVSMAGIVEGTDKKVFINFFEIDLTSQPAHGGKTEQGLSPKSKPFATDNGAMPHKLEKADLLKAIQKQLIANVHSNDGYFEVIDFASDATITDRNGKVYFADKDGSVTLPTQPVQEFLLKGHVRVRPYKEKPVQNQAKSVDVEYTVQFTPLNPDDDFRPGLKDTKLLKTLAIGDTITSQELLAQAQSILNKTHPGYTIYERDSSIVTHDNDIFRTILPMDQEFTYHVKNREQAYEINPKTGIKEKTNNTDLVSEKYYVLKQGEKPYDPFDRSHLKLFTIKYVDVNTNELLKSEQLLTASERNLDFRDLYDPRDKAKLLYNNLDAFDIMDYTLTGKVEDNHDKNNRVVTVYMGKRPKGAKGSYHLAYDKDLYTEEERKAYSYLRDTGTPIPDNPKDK
The series is described as follows: viability-normalized secreted streptokinase activity reduction – plasminogen activation absorbance, OD405, dose response (AID 1914).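 Note: secreted streptokinase activity via plasminogen activation per viability signal from cell pellet.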 In kind it is functional, Streptococcus pyogenes M1 GAS.

For series [5], the system named is Streptococcus. Nature of the series: GAS UMAA2166 growth inhibition – luminescence, BacTiterGlo, counter-screen for streptokinase expression inhibitor project, dose response (AID 1915).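 Note: potency for reduction of bacterial viability or growth.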 Format: functional, organism-based.
The test system of series [6] is Streptococcus sp. 'group A'. The series is described as follows: Streptococcus pyogenes SK(-)GAS viability under kanamycin – luminescence, BacTiterGlo, confirmation, counter-screen for streptokinase expression inhibitor project, dose response (AID 1900). In kind it is functional, organism-based.
The nature of series [7]: alpha-synuclein stem-loop luciferase translation blockers – H4 neuroglioma cells, luminescence, confirmation (AID 1988). In kind it is functional, cell-based.
A short description of series [8]: luciferase reporter signal suppression in cells – H4 neuroglioma cells, luminescence, dose response (AID 1990). Format: functional, cell-based. (Reporter assays use an easily measured gene product as a stand-in for the process of interest.)
Series [9] deals with T2, Corticotropin-releasing factor receptor 2/Corticotropin-releasing factor-binding protein (Homo sapiens, UniProt P24387+Q13324).
T2 sequence (Q13324 whole entry): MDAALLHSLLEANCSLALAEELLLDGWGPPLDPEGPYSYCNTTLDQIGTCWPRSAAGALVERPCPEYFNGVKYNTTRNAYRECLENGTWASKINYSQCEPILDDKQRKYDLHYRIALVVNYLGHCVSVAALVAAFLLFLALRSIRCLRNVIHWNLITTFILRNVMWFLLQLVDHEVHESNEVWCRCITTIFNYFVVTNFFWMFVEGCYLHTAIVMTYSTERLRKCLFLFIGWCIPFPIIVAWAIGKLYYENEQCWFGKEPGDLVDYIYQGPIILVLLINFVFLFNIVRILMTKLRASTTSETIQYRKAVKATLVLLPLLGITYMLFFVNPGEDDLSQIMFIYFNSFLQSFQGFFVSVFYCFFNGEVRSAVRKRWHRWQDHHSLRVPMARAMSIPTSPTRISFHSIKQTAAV
T2 sequence (P24387 whole entry): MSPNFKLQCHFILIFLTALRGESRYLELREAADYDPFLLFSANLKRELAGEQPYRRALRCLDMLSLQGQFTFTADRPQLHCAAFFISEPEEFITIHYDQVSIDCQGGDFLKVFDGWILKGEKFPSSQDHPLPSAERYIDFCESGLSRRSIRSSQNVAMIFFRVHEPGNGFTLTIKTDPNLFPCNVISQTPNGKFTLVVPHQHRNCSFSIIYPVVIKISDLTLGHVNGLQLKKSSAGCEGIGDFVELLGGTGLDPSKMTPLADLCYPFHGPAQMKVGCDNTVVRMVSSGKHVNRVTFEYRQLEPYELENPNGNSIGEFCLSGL
Nature of the series: activators of CRF receptor 2 with binding protein – uHTS hits, confirmation (AID 602473). Format: functional. The conditions noted are these: read-out: EC50_Mean.

Chain of Cytochrome P450 2C19 (P33261 whole entry): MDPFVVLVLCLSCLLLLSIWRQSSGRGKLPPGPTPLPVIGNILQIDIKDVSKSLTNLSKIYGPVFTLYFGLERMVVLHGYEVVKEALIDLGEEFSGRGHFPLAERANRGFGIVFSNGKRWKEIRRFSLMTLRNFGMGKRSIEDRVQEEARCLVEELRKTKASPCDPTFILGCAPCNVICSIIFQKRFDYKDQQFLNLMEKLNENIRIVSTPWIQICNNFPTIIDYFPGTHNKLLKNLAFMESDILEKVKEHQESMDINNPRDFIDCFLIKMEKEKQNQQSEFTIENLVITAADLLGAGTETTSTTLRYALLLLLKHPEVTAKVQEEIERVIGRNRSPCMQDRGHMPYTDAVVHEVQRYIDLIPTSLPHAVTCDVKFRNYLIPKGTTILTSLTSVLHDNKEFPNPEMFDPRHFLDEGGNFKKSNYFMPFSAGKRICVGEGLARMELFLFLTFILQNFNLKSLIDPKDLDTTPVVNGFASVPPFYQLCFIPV

For the compound `CN(C)c1ncc2nc(-c3ccccc3)c(=O)n(CCC#N)c2n1`, the AC50 (usually the concentration giving half of the maximal activity seen) in series [1] (read-out: AC50) is 39.8 µM (inconclusive).
`O=C1S/C(=C\c2ccccc2)C(=O)N1CC(O)Cn1c2ccccc2c2ccccc21` (configuration not stated): the EC50 was 11.5 µM (active) in series [2] and 2.64 µM (active) in [3].
The matching figures for `Cc1cc(OCCOCCN2CCCC2)ccc1C(C)C`: 4.6 µM (active) and 0.816 µM (active).
The matching figures for `COC(=O)c1ccc(OC)c(CN2CCCN(Cc3ccc(F)cc3)S2(=O)=O)c1`: > 30 µM (not active) and 1.75 µM (active).
As for `NNC(=O)CSc1nc(-c2ccccc2)nc2c1CCCC2`, the EC50 in series [4], in series [5] and in [6] was > 150 µM (not active) in each case.
In the case of `Cc1cccc(N=Nc2c(C)nn(-c3ccccc3)c2N)c1C`, the EC50 was 22 µM (active) in series [4], 15.8 µM (active) in [5] and 11.7 µM (active) in series [6].
The matching figures for `O=C(Nc1nnc(SCc2ccc(F)cc2)s1)c1ccc2c(c1)C(=O)N(c1ccccc1Cl)C2=O`: > 150 µM (not active), 101 µM (active) and 24.3 µM (active).
As for `CN1CCN(C(=O)C(=O)c2cn(CC(=O)N3CCCC3)c3ccccc23)CC1`, the EC50 in series [4], in [5] and in series [6] was > 150 µM (not active) in each case.
Regarding `COc1ccc(NC(=O)c2ccc([N+](=O)[O-])s2)c([N+](=O)[O-])c1`, the EC50 in [2] is > 30 µM (not active); in series [3], 1.86 µM (active).
The matching figures for `Cn1nc([N+](=O)[O-])nc1Oc1ccccc1F`: > 60 µM (not active) and 0.551 µM (active).
The matching figures for `Cc1ccc(S(=O)(=O)N2CCCCC2)cc1NC(=O)Nc1ccc(Cl)cc1Cl`: > 60 µM (not active) and 1.06 µM (active).
The matching figures for `Cc1cc(C(=O)NCC23CC4CC(CC(C4)C2)C3)c(C)o1`: > 60 µM (not active) and 2.84 µM (active).
As to `Cc1ccc(Nc2nc3nonc3[nH]c2=O)cc1Cl`, the EC50 in series [4] was 31.1 µM (active).
As to `Cc1ccc(Nc2nc3nonc3nc2O)cc1Cl`, the figures for the EC50 in series [5] and in [6] were 20.6 µM (active) and 3.04 µM (active), respectively.
As to `Cc1ccc(NC(=O)CN(C)Cc2nc(O)c3cc(Br)cc(Br)c3n2)cc1`, the EC50 in series [4] is > 150 µM (not active); in series [5] it was 12.2 µM (active); in [6] it was 5.34 µM (active).
The matching figures for `Cn1c(N)c(C(=O)COC(=O)CCc2c[nH]c3ccccc23)c(=O)n(C)c1=O`: > 150 µM (not active), 79.6 µM (active) and 24.6 µM (active).
`CCc1nnc(NC(=O)c2sc3nc4cc(C)ccc4cc3c2N)s1`: the EC50 in series [5] was 3.95 µM (active); in series [6] it was 6.73 µM (active).
In the case of `CCOC(=O)C1CCCN(Cc2ccc(OCc3ccccc3)cc2)C1` (configuration not stated), the EC50 in [2] is > 60 µM (not active); in series [3], 0.108 µM (active).
Turning to `COc1ccc(-n2ncc3c2CC(C)(C)CC3NC(=O)c2ocnc2C)cc1` (configuration not stated), the EC50 in series [7] and in series [8] was > 120 µM (not active) throughout.
With `COc1cc2ccccc2cc1C(=O)Nc1ccc(NC(=O)c2cccs2)cc1`, the values for the EC50 in series [4], in series [5] and in [6] were > 150 µM (not active), 29.2 µM (active) and 11.5 µM (active), respectively.
As for `CNc1nc2nc(O)c3c(c2s1)OC(N)=C(C#N)C3c1cccc(F)c1` (configuration not stated), in [9], the EC50 was > 53 µM (inactive).
Regarding `CN1CCN(C(CNC(=O)c2ccc(Br)o2)c2ccc(F)cc2)CC1` (configuration not stated), the EC50 in [2] was > 60 µM (not active); in [3] it was 0.865 µM (active).
Consider `Cc1ccccc1OCCCc1c(C)n[nH]c1C`, for which the values for the EC50 in series [4], in series [5] and in series [6] were > 150 µM (not active), > 150 µM (not active) and 19.9 µM (active), respectively.
Regarding `Cn1c(=O)n(C)c2cc(NS(=O)(=O)c3ccccc3[N+](=O)[O-])ccc21`, the EC50 in series [4], in series [5] and in [6] was > 150 µM (not active) each time.
As for `O=C(CSc1nnc(-c2c[nH]c3ccccc23)o1)N(Cc1ccccc1)c1ccc(F)cc1`, the EC50 is > 60 µM (not active) in series [2] and 1.58 µM (active) in series [3].
The matching figures for `N#C/C(=C/c1ccc(N2CCCCCC2)o1)c1cccc(F)c1`: > 60 µM (not active) and 2.78 µM (active).
Take `CCOC(=O)C1=NN(C(=O)c2ccc(OC)cc2)C(O)(c2ccc(Cl)cc2)C1` (configuration not stated): the EC50 in series [4] was > 150 µM (not active); in [5], 15.7 µM (active); in series [6] it was 7.85 µM (active).
As for `O=C(Nc1ccncc1)c1cccc(S(=O)(=O)N2CCN(c3ccc(F)cc3)CC2)c1`, the EC50 is > 30 µM (not active) in series [2] and 1.14 µM (active) in series [3].
`CCOC(=O)C1CCCN(Cc2ccc(O)c(OC)c2)C1` (configuration not stated): the results for the EC50 in series [2] and in series [3] were > 60 µM (not active) and 0.183 µM (active), respectively.
Consider `O=C(COC(=O)CSc1cc(Cl)ccc1Cl)NCc1ccc2c(c1)OCO2`, for which the EC50 in [9] is > 53 µM (inactive).
Turning to `CSc1nnnc2ccccc12`, the half-maximal activity concentration (AC50) entry in [1] is “inconclusive”.
As for `Cc1ccc(C)c(NC(=O)c2cccc(Oc3ccc([N+](=O)[O-])cc3Cl)c2)c1`, the EC50 in series [2] was > 30 µM (not active); in [3], 1.45 µM (active).
For `CCN(CC)C(=O)Cn1c(=O)c2ccccc2n2c(=S)sc(-c3cccc(C)c3)c12`, in series [9], the EC50 was > 53 µM (inactive).
Take `COc1ccc(Cc2noc(CN3CCN(C4CCc5ccccc5C4)CC3)n2)cc1OC` (configuration not stated): the values for the EC50 in series [2] and in series [3] were > 60 µM (not active) and 1.23 µM (active), respectively.
On to `CC(C)=CCC12Oc3cc(O)ccc3C1(O)Oc1cc(O)c([C@H]3C=C(C)CC(c4ccc(O)cc4O)[C@H]3C(=O)c3ccc(O)cc3O)c(O)c1C2=O` (some centres not stated), for which the EC50 was 1.64 µM (active) in [5] and 1.15 µM (active) in [6].
For the compound `O=C(C[C@H]1C[C@H](C(=O)N2CCCCC2)[C@@]2(CCc3ccccc3)c3[nH]c4ccc(Cl)cc4c3CCN2C1=O)NCCN1CCOCC1`, the EC50 in [9] was > 53 µM (inactive).
Turning to `O=C(Cn1nnc(-c2ccccc2)n1)N/N=C/c1cc([N+](=O)[O-])ccc1O`, the EC50 was 0.55 µM (active) in [5] and 0.421 µM (active) in series [6].
`CCCN(Cc1ccco1)S(=O)(=O)c1ccc(OC)c(OC)c1`: the EC50 in [4], in series [5] and in [6] was > 150 µM (not active) each time.
On to `CC(/C=C/C=C/c1ccccc1)=N/NC(=O)c1ccc2c(c1)OCCO2`, for which the EC50 in series [4], in [5] and in [6] was > 150 µM (not active) each time.
Regarding `O=[N+]([O-])c1cccc(-c2ccc(/C=N/NC(=S)Nc3ccccc3)o2)c1`, the EC50 in [3] is 1.99 µM (active).
For `Oc1ccc(/C=N/Nc2ccc3ccccc3c2)c(O)c1`, the EC50 in series [4] was > 150 µM (not active); in [5], 31.9 µM (active); in series [6], 6.27 µM (active).
